Measured values taken from BindingDB's records for patent WO2022098807 (Merck Sharp &Amp, 2022).

target: Mitogen-activated protein kinase kinase kinase kinase 1 (Homo sapiens, UniProt Q92918); assay: HPK1-SLP76 TR-FRET ASSAY
Sequence (Q92918 whole entry): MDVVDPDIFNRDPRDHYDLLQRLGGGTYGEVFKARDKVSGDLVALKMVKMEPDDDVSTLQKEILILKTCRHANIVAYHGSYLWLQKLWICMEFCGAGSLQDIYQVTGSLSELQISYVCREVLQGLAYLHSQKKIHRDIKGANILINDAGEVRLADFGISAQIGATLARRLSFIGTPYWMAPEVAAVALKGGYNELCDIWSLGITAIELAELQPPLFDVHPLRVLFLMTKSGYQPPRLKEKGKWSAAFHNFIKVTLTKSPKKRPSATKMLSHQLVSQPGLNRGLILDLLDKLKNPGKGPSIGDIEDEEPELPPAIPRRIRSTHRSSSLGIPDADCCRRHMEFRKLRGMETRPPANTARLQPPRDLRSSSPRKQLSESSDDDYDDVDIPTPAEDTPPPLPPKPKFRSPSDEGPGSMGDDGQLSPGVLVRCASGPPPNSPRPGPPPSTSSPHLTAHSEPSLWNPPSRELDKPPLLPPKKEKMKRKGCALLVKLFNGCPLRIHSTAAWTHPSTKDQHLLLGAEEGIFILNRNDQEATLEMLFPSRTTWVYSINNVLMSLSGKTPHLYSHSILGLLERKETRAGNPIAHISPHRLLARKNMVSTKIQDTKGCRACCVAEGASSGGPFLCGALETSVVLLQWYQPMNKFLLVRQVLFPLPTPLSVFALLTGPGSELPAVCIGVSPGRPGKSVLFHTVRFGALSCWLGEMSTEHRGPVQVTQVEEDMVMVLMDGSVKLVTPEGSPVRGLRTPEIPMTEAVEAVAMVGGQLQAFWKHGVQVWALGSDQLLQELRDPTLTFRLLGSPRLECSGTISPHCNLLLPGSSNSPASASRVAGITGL

IC50	Compound
50 pM	Cc1c(-c2cc3nc(Nc4cnn5c4CCC5)ncc3c(N)c2F)cnc2c1NCCO2 [WO2022098807, Example 2-35]
70 pM	Cc1cnsc1Nc1ncc2c(N)c(F)c(-c3cnc4c(c3C)NCCO4)cc2n1 [WO2022098807, Example 2-37]
50 pM	Cc1c(-c2cc3nc(Nc4cnn(C5COC5)c4)ncc3c(N)c2F)cnc2c1NCCO2 [WO2022098807, Example 2-39]
50 pM	Cc1c(-c2c(F)c(N)c3cnc(Nc4cnn(C5CCN(C)CC5)c4)nc3c2Cl)cnc2c1NCCO2 [WO2022098807, Example 2-44]
180 pM	Cc1c(-c2c(F)c(N)c3cnc(Nc4cnn(C5CC5)c4C)nc3c2Cl)cnc2c1NCCO2 [WO2022098807, Example 2-45]
50 pM	Cc1c(-c2cc3nc(Nc4cnn(C56CC(C(C)(C)O)(C5)C6)c4)ncc3c(N)c2F)cnc2c1NCCO2 [WO2022098807, Example 2-46]
180 pM	Cc1c(-c2c(F)c(N)c3cnc(Nc4cnn([C@H]5CCN(C)C5)c4)nc3c2Cl)cnc2c1NCCO2 [WO2022098807, Example 2-47]
170 pM	Cc1c(-c2c(F)c(N)c3cnc(Nc4cnn([C@@H]5CCN(C)C5)c4)nc3c2Cl)cnc2c1NCCO2 [WO2022098807, Example 2-48]

The remaining lines, values behind:

Compound	IC50
Cc1c(-c2ccc3cnc(Nc4cnn(C5CC6(C5)CC(C5(C)COC5)C6)c4)nc3c2)cnc2c1NCCO2 (stereo not given) [WO2022098807, Example 1-2]	220 pM
Cc1c(-c2ccc3cnc(Nc4cc5n(n4)CCN(C(C)(C)O)C(=O)C5)nc3c2)cnc2c1NCCO2 [WO2022098807, Example 1-8]	670 pM
Cc1c(-c2cc3nc(Nc4cnn(C5(C)CC5)c4)ncc3c(N)c2F)cnc2c1NCCO2 [WO2022098807, Example 2-8]	90 pM
Cc1c(-c2cc3nc(Nc4cnn(C5CCNCC5)c4)ncc3c(N)c2F)cnc2c1NCCO2 [WO2022098807, Example 2-11]	70 pM
Cc1c(-c2cc3nc(Nc4cnn([C@@H]5CCN(C)C5=O)c4)ncc3c(N)c2F)cnc2c1NCCO2 [WO2022098807, Example 2-19]	150 pM
Cc1c(-c2cc3nc(Nc4cc5n(n4)CCN(C(C)C)C(=O)C5)ncc3c(N)c2F)cnc2c1NCCO2 [WO2022098807, Example 2-20]	60 pM
Cc1c(-c2cc3nc(Nc4cnn([C@H]5CCN(C)C5=O)c4)ncc3c(N)c2F)cnc2c1NCCO2 [WO2022098807, Example 2-21]	350 pM
CCn1cc(Nc2ncc3c(N)c(F)c(-c4cnc5c(c4C)NCCO5)cc3n2)cn1 [WO2022098807, Example 2-22]	80 pM
CNC(=O)C12CC(n3cc(Nc4ncc5c(N)c(F)c(-c6cnc7c(c6C)NCCO7)cc5n4)cn3)(C1)C2 [WO2022098807, Example 2-28]	90 pM
Cc1c(-c2cc3nc(Nc4cnn(C)c4C)ncc3c(N)c2F)cnc2c1NCCO2 [WO2022098807, Example 2-30]	50 pM
Cc1c(-c2cc3nc(Nc4cnn(CC(F)F)c4)ncc3c(N)c2F)cnc2c1NCCO2 [WO2022098807, Example 2-32]	50 pM
Cc1nn(C)cc1Nc1ncc2c(N)c(F)c(-c3cnc4c(c3C)NCCO4)cc2n1 [WO2022098807, Example 2-34]	60 pM
